From the NIST ThermoML archive (doi:10.1016/j.jct.2013.07.008)

Legend:
[1] = wn = mass fraction of the nth substance listed; conditions: for surface tension liquid-gas: Maximal bubble pressure; for mass density: 101 kPa, Liquid, Buoyancy - hydrostatic balance
[2] = refractive index (Na D-line) (dimensionless); wn = mass fraction of the nth substance listed; conditions: 101 kPa, Liquid, Standard Abbe refractometry

CC(O)C(=O)[O-].CCn1cc[n+](C)c1 [1-ethyl-3-methylimidazolium lactate] + O
Conditions | mass density, [1] [kg/m3] | refractive index, [2] | surface tension liquid-gas, [1] [mN/m]
288.15 K, w2 = 0.0082 | 1197.3 | 1.5019 | 50.1
288.15 K, w2 = 0.0104 | 1198.4 | 1.5017 | 50.3
288.15 K, w2 = 0.0121 | 1199.4 | 1.5016 | 50.4
288.15 K, w2 = 0.0158 | 1201.3 | 1.5013 | 50.7
288.15 K, w2 = 0.0205 | 1203.8 | 1.5009 | 51
293.15 K, w2 = 0.0082 | 1194.1 | 1.5006 | 49.8
293.15 K, w2 = 0.0104 | 1195.2 | 1.5004 | 50
293.15 K, w2 = 0.0121 | 1196.1 | 1.5002 | 50.1
293.15 K, w2 = 0.0158 | 1198.1 | 1.4999 | 50.4
293.15 K, w2 = 0.0205 | 1200.5 | 1.4994 | 50.7
303.15 K, w2 = 0.0082 | 1187.6 | 1.498 | 49.1
303.15 K, w2 = 0.0104 | 1188.8 | 1.4978 | 49.3
303.15 K, w2 = 0.0121 | 1189.7 | 1.4977 | 49.4
303.15 K, w2 = 0.0158 | 1191.5 | 1.4974 | 49.7
303.15 K, w2 = 0.0205 | 1194 | 1.497 | 50.1
308.15 K, w2 = 0.0082 | 1184.3 | 1.4969 | 48.7
308.15 K, w2 = 0.0104 | 1185.5 | 1.4967 | 48.9
308.15 K, w2 = 0.0121 | 1186.4 | 1.4965 | 49
308.15 K, w2 = 0.0158 | 1188.3 | 1.4962 | 49.3
308.15 K, w2 = 0.0205 | 1190.7 | 1.4957 | 49.7
313.15 K, w2 = 0.0082 | 1180.9 | 1.4955 | 48.4
313.15 K, w2 = 0.0104 | 1182 | 1.4953 | 48.6
313.15 K, w2 = 0.0121 | 1182.9 | 1.4952 | 48.7
313.15 K, w2 = 0.0158 | 1184.9 | 1.4949 | 49
313.15 K, w2 = 0.0205 | 1187.5 | 1.4946 | 49.4
318.15 K, w2 = 0.0082 | 1177.6 | 1.4943 | 48.1
318.15 K, w2 = 0.0104 | 1178.8 | 1.4941 | 48.3
318.15 K, w2 = 0.0121 | 1179.7 | 1.494 | 48.4
318.15 K, w2 = 0.0158 | 1181.5 | 1.4937 | 48.7
318.15 K, w2 = 0.0205 | 1184 | 1.4933 | 49.1
323.15 K, w2 = 0.0082 | 1174.5 | 1.4931 | 47.7
323.15 K, w2 = 0.0104 | 1175.6 | 1.493 | 47.9
323.15 K, w2 = 0.0121 | 1176.4 | 1.4929 | 48
323.15 K, w2 = 0.0158 | 1178.2 | 1.4927 | 48.3
323.15 K, w2 = 0.0205 | 1180.6 | 1.4924 | 48.7
328.15 K, w2 = 0.0082 | 1171.3 | 1.4919 | 47.3
328.15 K, w2 = 0.0104 | 1172.5 | 1.4917 | 47.5
328.15 K, w2 = 0.0121 | 1173.4 | 1.4915 | 47.6
328.15 K, w2 = 0.0158 | 1175.3 | 1.4912 | 47.9
328.15 K, w2 = 0.0205 | 1177.7 | 1.4908 | 48.3
333.15 K, w2 = 0.0082 | 1168 | 1.4906 | 47
333.15 K, w2 = 0.0104 | 1169.1 | 1.4904 | 47.2
333.15 K, w2 = 0.0121 | 1170 | 1.4903 | 47.3
333.15 K, w2 = 0.0158 | 1172 | 1.49 | 47.6
333.15 K, w2 = 0.0205 | 1174.5 | 1.4896 | 48

CC(O)C(=O)[O-].CCCCCn1cc[n+](C)c1 [1-pentyl-3-methylimidazolium lactate] + O
Conditions | mass density, [1] [kg/m3] | refractive index, [2] | surface tension liquid-gas, [1] [mN/m]
288.15 K, w2 = 0.0081 | – | 1.4933 | –
288.15 K, w2 = 0.0086 | 1116.6 | – | 43.7
288.15 K, w2 = 0.0102 | – | 1.4931 | –
288.15 K, w2 = 0.0106 | 1117.4 | – | 43.8
288.15 K, w2 = 0.0129 | 1118.6 | 1.4929 | 44
288.15 K, w2 = 0.0153 | – | 1.4927 | –
288.15 K, w2 = 0.0163 | 1120.3 | – | 44.3
288.15 K, w2 = 0.0199 | – | 1.4923 | –
288.15 K, w2 = 0.021 | 1122.4 | – | 44.6
293.15 K, w2 = 0.0081 | – | 1.492 | –
293.15 K, w2 = 0.0086 | 1113.1 | – | 43.3
293.15 K, w2 = 0.0102 | – | 1.4918 | –
293.15 K, w2 = 0.0106 | 1113.9 | – | 43.4
293.15 K, w2 = 0.0129 | 1115.2 | 1.4916 | 43.6
293.15 K, w2 = 0.0153 | – | 1.4913 | –
293.15 K, w2 = 0.0163 | 1116.8 | – | 43.9
293.15 K, w2 = 0.0199 | – | 1.4909 | –
293.15 K, w2 = 0.021 | 1119 | – | 44.2
303.15 K, w2 = 0.0081 | – | 1.4894 | –
303.15 K, w2 = 0.0086 | 1106.8 | – | 42.6
303.15 K, w2 = 0.0102 | – | 1.4892 | –
303.15 K, w2 = 0.0106 | 1107.6 | – | 42.7
303.15 K, w2 = 0.0129 | 1108.8 | 1.489 | 42.9
303.15 K, w2 = 0.0153 | – | 1.4888 | –
303.15 K, w2 = 0.0163 | 1110.5 | – | 43.2
303.15 K, w2 = 0.0199 | – | 1.4884 | –
303.15 K, w2 = 0.021 | 1112.7 | – | 43.5
308.15 K, w2 = 0.0081 | – | 1.4883 | –
308.15 K, w2 = 0.0086 | 1103.6 | – | 42.2
308.15 K, w2 = 0.0102 | – | 1.4881 | –
308.15 K, w2 = 0.0106 | 1104.3 | – | 42.3
308.15 K, w2 = 0.0129 | 1105.6 | 1.4879 | 42.5
308.15 K, w2 = 0.0153 | – | 1.4876 | –
308.15 K, w2 = 0.0163 | 1107.3 | – | 42.8
308.15 K, w2 = 0.0199 | – | 1.4872 | –
308.15 K, w2 = 0.021 | 1109.5 | – | 43.2
313.15 K, w2 = 0.0081 | – | 1.4869 | –
313.15 K, w2 = 0.0086 | 1099.9 | – | 41.9
313.15 K, w2 = 0.0102 | – | 1.4867 | –
313.15 K, w2 = 0.0106 | 1100.7 | – | 42
313.15 K, w2 = 0.0129 | 1102.1 | 1.4865 | 42.2
313.15 K, w2 = 0.0153 | – | 1.4863 | –
313.15 K, w2 = 0.0163 | 1104 | – | 42.5
313.15 K, w2 = 0.0199 | – | 1.486 | –
313.15 K, w2 = 0.021 | 1106.4 | – | 42.9
318.15 K, w2 = 0.0081 | – | 1.4857 | –
318.15 K, w2 = 0.0086 | 1097.1 | – | 41.6
318.15 K, w2 = 0.0102 | – | 1.4855 | –
318.15 K, w2 = 0.0106 | 1097.8 | – | 41.8
318.15 K, w2 = 0.0129 | 1099.1 | 1.4853 | 41.9
318.15 K, w2 = 0.0153 | – | 1.4851 | –
318.15 K, w2 = 0.0163 | 1100.8 | – | 42.2
318.15 K, w2 = 0.0199 | – | 1.4847 | –
318.15 K, w2 = 0.021 | 1103 | – | 42.6
323.15 K, w2 = 0.0081 | – | 1.4845 | –
323.15 K, w2 = 0.0086 | 1093.9 | – | 41.2
323.15 K, w2 = 0.0102 | – | 1.4844 | –
323.15 K, w2 = 0.0106 | 1094.6 | – | 41.4
323.15 K, w2 = 0.0129 | 1095.8 | 1.4842 | 41.5
323.15 K, w2 = 0.0153 | – | 1.4841 | –
323.15 K, w2 = 0.0163 | 1097.5 | – | 41.8
323.15 K, w2 = 0.0199 | – | 1.4838 | –
323.15 K, w2 = 0.021 | 1099.6 | – | 42.2
328.15 K, w2 = 0.0081 | – | 1.4833 | –
328.15 K, w2 = 0.0086 | 1090.5 | – | 40.8
328.15 K, w2 = 0.0102 | – | 1.4831 | –
328.15 K, w2 = 0.0106 | 1091.2 | – | 41
328.15 K, w2 = 0.0129 | 1092.5 | 1.4829 | 41.1
328.15 K, w2 = 0.0153 | – | 1.4826 | –
328.15 K, w2 = 0.0163 | 1094.1 | – | 41.4
328.15 K, w2 = 0.0199 | – | 1.4822 | –
328.15 K, w2 = 0.021 | 1096.4 | – | 41.8
333.15 K, w2 = 0.0081 | – | 1.482 | –
333.15 K, w2 = 0.0086 | 1087.4 | – | 40.5
333.15 K, w2 = 0.0102 | – | 1.4818 | –
333.15 K, w2 = 0.0106 | 1088.1 | – | 40.7
333.15 K, w2 = 0.0129 | 1089.3 | 1.4816 | 40.8
333.15 K, w2 = 0.0153 | – | 1.4814 | –
333.15 K, w2 = 0.0163 | 1091 | – | 41.1
333.15 K, w2 = 0.0199 | – | 1.481 | –
333.15 K, w2 = 0.021 | 1093.2 | – | 41.5
